Read-outs that look alike come from different tables or passages of the source.
Assays:
[1] = biological target: KRas G12C (Homo sapiens, UniProt P01116, C118S/C51S/C80L/G12C); experiment: KRas G12C Modification Assay (LCMS detection of covalent adduct); assay type: binding; details: normalized percent of control, tested at 5 μM concentration for 3 hours
Procedure, shortened: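 Cys-light KRas G12C mutant protein incubated with compound in K-Ras assay buffer, reactions quenched at set time points with 25 mM acetic acid and analysed by intact-protein LC/MS on a C-3 column. Deconvoluted mass heights expressed as percent of control (POC) relative to compound-free protein.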

[2] = system: NCI-H358 cells (express KRas G12C), Phospho-ERK; experiment: Cellular inhibition of KRas G12C: Phospho-ERK in NCI-H358 cells; assay type: cell-based; details: pERK(Thr202/Tyr204) normalized with GAPDH, NCI-H358 cells, 3 hours, read-out: IC50
Procedure, shortened: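 IC50 derived by 4-parameter fit of GAPDH-normalized pERK(Thr202/Tyr204) signal, as percent of DMSO control. Signal came from in-cell immunodetection with infrared secondaries after 3 h compound exposure of KRas G12C NCI-H358 cells at 0.5% DMSO.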

Row | POC [1] | POC ([1]; 5 µM) | SMILES | IC50 [2] | IC50 ([2]; Homo sapiens, NCI-H358, 3 h)
1 | C (“C”>50% POC) |  | C=CC(=O)N1CCN(c2nc(OC[C@@H]3CCCN3C)nc3c2CCN(c2nccc4ccccc24)C3)CC1CC#N (stereo partly drawn) [Example 289, 2-[4-[7-(1-isoquinolyl)-2-[[(2S)-1-methylpyrrolidin-2-yl]methoxy]-6,8-dihydro-5H-pyrido[3,4-d]pyrimidin-4-yl]-1-prop-2-enoyl-piperazin-2-yl]acetonitrile] | > 1000 nM | 
2 | C (“C”>50% POC) |  | C=CC(=O)N1CCN(c2nc(OC[C@@H]3CCCN3C)nc3c2CCN(c2cccc4cc(F)ccc24)C3)CC1CC#N (stereo partly drawn) [Example 290, 2-[4-[7-(6-fluoro-1-naphthyl)-2-[[(2S)-1-methylpyrrolidin-2-yl]methoxy]-6,8-dihydro-5H-pyrido[3,4-d]pyrimidin-4-yl]-1-prop-2-enoyl-piperazin-2-yl]acetonitrile] | 0.1 to 1000 nM | 
3 | C (“C”>50% POC) |  | C=CC(=O)N1CCN(c2nc(OC[C@@H]3CCCN3C)nc3c2CCN(c2cncc4ccccc24)C3)CC1CC#N (stereo partly drawn) [Example 291, 2-[4-[7-(4-isoquinolyl)-2-[[(2S)-1-methylpyrrolidin-2-yl]methoxy]-6,8-dihydro-5H-pyrido[3,4-d]pyrimidin-4-yl]-1-prop-2-enoyl-piperazin-2-yl]acetonitrile] | 0.1 to 1000 nM | 
4 | A (“A”≤25% POC) |  | C=CC(=O)N1CCN(c2nc(OC[C@@H]3CCCN3C)nc3c2CCN(c2cccc4cnccc24)C3)CC1CC#N (stereo partly drawn) [Example 292, 2-[4-[7-(5-isoquinolyl)-2-[[(2S)-1-methylpyrrolidin-2-yl]methoxy]-6,8-dihydro-5H-pyrido[3,4-d]pyrimidin-4-yl]-1-prop-2-enoyl-piperazin-2-yl]acetonitrile] | > 1000 nM | 
5 | C (“C”>50% POC) |  | C/C=C/C(=O)N1CCN(c2nc(OC[C@@H]3CCCN3C)nc3c2CCN(c2cccc4ccccc24)C3)CC1CC#N (stereo partly drawn) [Example 293, 2-[1-[(E)-but-2-enoyl]-4-[2-[[(2S)-1-methylpyrrolidin-2-yl]methoxy]-7-(1-naphthyl)-6,8-dihydro-5H-pyrido[3,4-d]pyrimidin-4-yl]piperazin-2-yl]acetonitrile] | 0.1 to 1000 nM | 
6 | C (“C”>50% POC) |  | C=CC(=O)N1CCN(c2nc(OC[C@@H]3CCCN3C)nc3c2CCN(c2cccc4ncccc24)C3)CC1CC#N (stereo partly drawn) [Example 294, 2-[4-[2-[[(2S)-1-methylpyrrolidin-2-yl]methoxy]-7-(5-quinolyl)-6,8-dihydro-5H-pyrido[3,4-d]pyrimidin-4-yl]-1-prop-2-enoyl-piperazin-2-yl]acetonitrile] | > 1000 nM | 
7 |  | A (“A”≤25% POC) | C=CC(=O)N1CCN(c2nc(OC[C@@H]3CCCN3C)nc3c2CCN(c2ccnc4ccccc24)C3)CC1CC#N (stereo partly drawn) [Example 295, 2-[4-[2-[[(2S)-1-methylpyrrolidin-2-yl]methoxy]-7-(4-quinolyl)-6,8-dihydro-5H-pyrido[3,4-d]pyrimidin-4-yl]-1-prop-2-enoyl-piperazin-2-yl]acetonitrile] | > 1000 nM | 
8 | C (“C”>50% POC) |  | C=CC(=O)N1CCN(c2nc(OCCN(C)C)nc3c2CCN(c2ccccc2C(F)(F)F)C3)CC1CC#N (centres unmarked) [Example 296, 2-[4-[2-[2-(dimethylamino)ethoxy]-7-[2-(trifluoromethyl)phenyl]-6,8-dihydro-5H-pyrido[3,4-d]pyrimidin-4-yl]-1-prop-2-enoyl-piperazin-2-yl]acetonitrile] | 0.1 to 1000 nM | 
9 | C (“C”>50% POC) |  | C=CC(=O)N1CCN(c2nc(OCCCN3C[C@H]4C[C@@H]3CO4)nc3c2CCN(c2ccccc2C(F)(F)F)C3)CC1CC#N (stereo partly drawn) [Example 297, 2-[4-[2-[3-[(1R,4R)-2-oxa-5-azabicyclo[2.2.1]heptan-5-yl]propoxy]-7-[2-(trifluoromethyl)phenyl]-6,8-dihydro-5H-pyrido[3,4-d]pyrimidin-4-yl]-1-prop-2-enoyl-piperazin-2-yl]acetonitrile] | 0.1 to 1000 nM | 
10 | C (“C”>50% POC) |  | C=CC(=O)N1CCN(c2nc(OC[C@@H]3CCN(C)C3)nc3c2CCN(c2ccccc2C(F)(F)F)C3)CC1CC#N (stereo partly drawn) [Example 298, 2-(1-acryloyl-4-(2-(((R)-1-methylpyrrolidin-3-yl)methoxy)-7-(2-(trifluoromethyl)phenyl)-5,6,7,8-tetrahydropyrido[3,4-d]pyrimidin-4-yl)piperazin-2-yl)acetonitrile] | 0.1 to 1000 nM | 
11 | C (“C”>50% POC) |  | C=CC(=O)N1CCN(c2nc(OC[C@H]3CCCN3C)nc3c2CCN(c2ccccc2C(F)(F)F)C3)CC1CC#N (stereo partly drawn) [Example 299, 2-[4-[2-[[(2R)-1-methylpyrrolidin-2-yl]methoxy]-7-[2-(trifluoromethyl)phenyl]-6,8-dihydro-5H-pyrido[3,4-d]pyrimidin-4-yl]-1-prop-2-enoyl-piperazin-2-yl]acetonitrile] | 0.1 to 1000 nM | 
12 | C (“C”>50% POC) |  | C=CC(=O)N1CCN(c2nc(OCCN(CC)CC)nc3c2CCN(c2ccccc2C(F)(F)F)C3)CC1CC#N (centres unmarked) [Example 300, 2-[4-[2-[2-(diethylamino)ethoxy]-7-[2-(trifluoromethyl)phenyl]-6,8-dihydro-5H-pyrido[3,4-d]pyrimidin-4-yl]-1-prop-2-enoyl-piperazin-2-yl]acetonitrile] | 0.1 to 1000 nM | 
13 | C (“C”>50% POC) |  | C=CC(=O)N1CCN(c2nc(OC[C@@H]3CCC(C)(C)N3C)nc3c2CCN(c2cccc4ccccc24)C3)CC1CC#N (stereo partly drawn) [Example 301, 2-[4-[7-(1-naphthyl)-2-[[(2S)-1,5,5-trimethylpyrrolidin-2-yl]methoxy]-6,8-dihydro-5H-pyrido[3,4-d]pyrimidin-4-yl]-1-prop-2-enoyl-piperazin-2-yl]acetonitrile] |  | 0.1 to 1000 nM
14 | C (“C”>50% POC) |  | C=CC(=O)N1CCN(c2nc(OC[C@@H]3CCCN3C)nc3c2CCN(c2cccc4ccc(F)cc24)C3)CC1CC#N (some centres unmarked) [Example 302] |  | 0.1 to 1000 nM
15 | C (“C”>50% POC) |  | C=CC(=O)N1CCN(c2nc(OCCN3CCCCC3)nc3c2CCN(c2cccc4ccccc24)C3)CC1CC#N (centres unmarked) [Example 303, 2-[4-[7-(1-naphthyl)-2-[2-(1-piperidyl)ethoxy]-6,8-dihydro-5H-pyrido[3,4-d]pyrimidin-4-yl]-1-prop-2-enoyl-piperazin-2-yl]acetonitrile] |  | 0.1 to 1000 nM
16 | C (“C”>50% POC) |  | C=CC(=O)N1CCN(c2nc(OC[C@H]3CCCN3CCO)nc3c2CCN(c2cccc4ccccc24)C3)CC1CC#N (stereo partly drawn) [Example 304, 2-[4-[2-[[(2R)-1-(2-hydroxyethyl)pyrrolidin-2-yl]methoxy]-7-(1-naphthyl)-6,8-dihydro-5H-pyrido[3,4-d]pyrimidin-4-yl]-1-prop-2-enoyl-piperazin-2-yl]acetonitrile] |  | 0.1 to 1000 nM
17 | C (“C”>50% POC) |  | C=CC(=O)N1CCN(c2nc(OC[C@@H]3CCCN3C)nc3c2CCN(c2cnccc2C#N)C3)C[C@@H]1CC#N [Example 305, 3-(4-((S)-4-acryloyl-3-(cyanomethyl)piperazin-1-yl)-2-(((S)-1-methylpyrrolidin-2-yl)methoxy)-5,6-dihydropyrido[3,4-d]pyrimidin-7(81)-yl)isonicotinonitrile] |  | > 1000 nM
18 | C (“C”>50% POC) |  | C=CC(=O)N1CCN(c2nc(OC[C@@H]3C[C@@H](F)CN3C)nc3c2CCN(c2cccc4ccccc24)C3)C[C@@H]1CC#N [Example 306, 2-[(2S)-4-[2-[[(2S,4R)-4-fluoro-1-methyl-pyrrolidin-2-yl]methoxy]-7-(1-naphthyl)-6,8-dihydro-5H-pyrido[3,4-d]pyrimidin-4-yl]-1-prop-2-enoyl-piperazin-2-yl]acetonitrile] |  | 0.1 to 1000 nM
19 | C (“C”>50% POC) |  | C=CC(=O)N1CCN(c2nc(OC[C@@H]3CCCN3C)nc3c2CCN(c2cccc(OC)c2F)C3)CC1CC#N (stereo partly drawn) [Example 307, 2-[4-[7-(2-fluoro-3-methoxy-phenyl)-2-[[(2S)-1-methylpyrrolidin-2-yl]methoxy]-6,8-dihydro-5H-pyrido[3,4-d]pyrimidin-4-yl]-1-prop-2-enoyl-piperazin-2-yl]acetonitrile] |  | > 1000 nM
20 | C (“C”>50% POC) |  | C=CC(=O)N1CCN(c2nc(OC[C@@H]3CCCN3C)nc3c2CCN(c2cccc(F)c2OC)C3)CC1CC#N (stereo partly drawn) [Example 308, 2-[4-[7-(3-fluoro-2-methoxy-phenyl)-2-[[(2S)-1-methylpyrrolidin-2-yl]methoxy]-6,8-dihydro-5H-pyrido[3,4-d]pyrimidin-4-yl]-1-prop-2-enoyl-piperazin-2-yl]acetonitrile] |  | 0.1 to 1000 nM
21 | C (“C”>50% POC) |  | C=CC(=O)N1CCN(c2nc(OC[C@@H]3CCCN3C)nc3c2CCN(c2cccc4cccc(C)c24)C3)CC1CC#N (stereo partly drawn) [Example 309, 2-(1-acryloyl-4-(7-(8-methylnaphthalen-1-yl)-2-(((S)-1-methylpyrrolidin-2-yl)methoxy)-5,6,7,8-tetrahydropyrido[3,4-d]pyrimidin-4-yl)piperazin-2-yl)acetonitrile] |  | 0.1 to 1000 nM
22 | C (“C”>50% POC) |  | C=CC(=O)N1CCN(c2nc(OC[C@@H]3CCCN3C)nc3c2CCN(c2c(F)ccc4ccccc24)C3)CC1CC#N (stereo partly drawn) [Example 311, 2-(1-acryloyl-4-(7-(2-fluoronaphthalen-1-yl)-2-(((S)-1-methylpyrrolidin-2-yl)methoxy)-5,6,7,8-tetrahydropyrido[3,4-d]pyrimidin-4-yl)piperazin-2-yl)acetonitrile] |  | 0.1 to 1000 nM

Source: patent US10125134B2 (Mirati Therapeutics, Inc., priority 2016, dated 2018)
